{
  "source": "patent US20120321729A1",
  "about": "“NUTRITIONAL FORMULA FOR MANAGING CHRONIC OBSTRUCTIVE PULMONARY DISEASE (COPD) AND LUNG HEALTH” (priority 2011, published 2012)",
  "key": {"[1]": {"system": "Nrf2 (nuclear factor erythroid 2-related factor 2)", "assay": "Alteration of regulatory elements of oxidative stress and inflammation (Nrf2)", "settings": "\"We and others have observed\""}, "[2]": {"system": "primary rat tracheal epithelial cells", "settings": "a chemical found in tobacco smoke, previously disclosed; cited from earlier work"}, "[3]": {"system": "lipopolysaccharide-induced injury (lungs)", "settings": "rats; cited from earlier work"}, "[4]": {"system": "lipopolysaccharide-induced injury (lungs)", "settings": "mice; cited from earlier work"}, "[5]": {"system": "Nrf2 (nuclear factor erythroid 2-related factor 2)", "settings": "\"It has been shown\" (related art); cited from earlier work"}, "heme oxygenase 1": {"system": "heme oxygenase 1", "settings": "Zhang H S, Wang S Q Biochem Pharmacol. 2007; cited from earlier work"}, "[6]": {"system": "inducible nitric oxide synthase", "settings": "Zhang H S, Wang S Q Biochem Pharmacol. 2007; cited from earlier work"}},
  "note": "Where two headings read alike, the source gives them in different places.",
  "data": [
    {"compound": "Cc1coc2c1C(=O)C(=O)c1c-2ccc2c1CCCC2(C)C", "note": "[Tanshinone IIA]", "values": [
      {"measurement": "effect on regulatory elements involved in oxidative stress and inflammation such as Nrf2", "setting": "[1]", "result": "alters regulatory elements"},
      {"measurement": "protection of primary rat tracheal epithelial cells from benzopyrene", "setting": "[2]", "result": "protects"},
      {"measurement": "protection of lungs from lipopolysaccharide-induced injury", "setting": "[3]", "result": "protects lungs"},
      {"measurement": "protection of lungs from lipopolysaccharide-induced injury", "setting": "[4]", "result": "protects lungs"},
      {"measurement": "effect on regulatory elements involved in oxidative stress and inflammation such as Nrf2", "setting": "[5]", "result": "alters regulatory elements"},
      {"measurement": "induction of heme oxygenase 1", "setting": "heme oxygenase 1", "result": "inducer"},
      {"measurement": "suppression of the induction of inducible nitric oxide synthase", "setting": "[6]", "result": "suppressor of the induction"}
    ]}
  ]
}
